Test results: patent US20190119284A1, “ErbB Inhibitors and Uses Thereof” (The Regents of the University of California, priority 2016, published 2019)
Like-named read-outs stand apart in the source and are kept apart here.

Key:
[1] = biological target: 2YF/3wt + NRG Ba/F3 cells (HER2YF/HER3wt) (Homo sapiens, UniProt P04626, Y1005F/Y1023F/Y1112F/Y1127F/Y1139F/Y1196F/Y1221F/Y1222F/Y1248F, cells depend on it); assay: Ba/F3 proliferation assay, 2YF/3wt + NRG; assay type: cell-based
Source text: Ba/F3 cells are normally dependent on IL-3 signaling for their proliferation and survival, but can be made dependent on introduced oncogenic signals. We sequentially selected transduced Ba/F3 cells for populations stably expressing HER3 and then HER2. To ensure that all of the proliferative signal could be attributed to HER2/HER3 heterodimers, rather than HER2 homodimers, the 9 C-terminal tyrosines in HER2 were mutated to phenylalanine (HER2YF). We then withdrew IL-3 and supplemented the media with NRG to select for NRG dependent HER2YF/HER3wt cells (2YF/3wt).
For the 2YF/3wt cells, the parental cells were first transduced with HER3 according to the protocol above and were then spun down at 500×g for 5 min and re-suspended in media supplemented with 10 ng/mL IL-3 and 3 μg/mL puromycin (Invitrogen). Cells were maintained in these conditions for seven days, passaging as required. After seven days the cells were spun down, washed with fresh media, and then used for a subsequent round of transduction according to the protocol above with HER2YF virus. […] The cells were maintained in these conditions for seven days, passaging as required. After seven days the cells were spun down, washed with fresh media, and then suspended in media supplemented with 10 ng/mL of NRG. Cells were maintained in these conditions for seven days to select for a NRG dependent population of 2YF/3wt Ba/F3 cells that were then maintained as described above. The same protocol was used for the 2YF-L755S/3wt, 2YF-YVMA/3wt, and 2YF-VC/3wt cell lines using the indicated constructs.
Proliferation Assays. […] The following day media was changed to fresh media that contained either DMSO or the indicated concentration of drug plus NRG (50 ng/mL final concentration) as indicated. […] For all normalized assays, proliferation was normalized to the DMSO control condition. All graphs were plotted in GraphPad Prism 6 and fit with a non-linear regression of the log(inhibitor) vs response with a variable slope where shown. All graphs are averages (+/−standard deviation) of biological triplicates each performed in technical triplicate unless otherwise noted. If only one biological replicate was performed standard deviations were derived from the technical replicates.

[2] = biological target: T1, Axl+ Ba/F3 cells (Homo sapiens, UniProt P30530); assay: Ba/F3 proliferation assay, Axl+; assay type: cell-based
T1 sequence (P30530 1-894): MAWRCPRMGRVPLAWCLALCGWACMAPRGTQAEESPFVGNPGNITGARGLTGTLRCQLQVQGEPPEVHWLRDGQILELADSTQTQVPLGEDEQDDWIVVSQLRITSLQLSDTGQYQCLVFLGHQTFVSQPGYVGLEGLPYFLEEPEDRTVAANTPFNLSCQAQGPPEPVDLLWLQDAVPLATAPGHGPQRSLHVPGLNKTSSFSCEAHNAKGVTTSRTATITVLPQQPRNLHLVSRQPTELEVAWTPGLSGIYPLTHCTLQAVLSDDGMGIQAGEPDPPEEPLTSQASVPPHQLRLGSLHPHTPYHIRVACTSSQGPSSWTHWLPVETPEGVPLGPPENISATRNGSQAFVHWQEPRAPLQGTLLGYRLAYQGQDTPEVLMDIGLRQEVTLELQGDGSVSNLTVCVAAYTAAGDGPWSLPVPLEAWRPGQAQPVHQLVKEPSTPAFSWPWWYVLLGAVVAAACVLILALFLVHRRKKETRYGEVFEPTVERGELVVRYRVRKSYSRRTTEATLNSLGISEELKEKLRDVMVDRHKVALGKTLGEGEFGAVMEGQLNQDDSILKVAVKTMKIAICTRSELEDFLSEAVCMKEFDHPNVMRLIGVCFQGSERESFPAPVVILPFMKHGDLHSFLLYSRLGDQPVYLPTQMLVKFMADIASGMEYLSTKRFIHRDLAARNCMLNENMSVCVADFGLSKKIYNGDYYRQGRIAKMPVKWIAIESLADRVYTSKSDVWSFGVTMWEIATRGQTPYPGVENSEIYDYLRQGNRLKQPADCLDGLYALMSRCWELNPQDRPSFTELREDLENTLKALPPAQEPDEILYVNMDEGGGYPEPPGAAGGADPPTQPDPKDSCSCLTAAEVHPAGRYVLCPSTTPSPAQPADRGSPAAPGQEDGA
Description: (§1) To validate the screen and test the effectiveness of counter-screening with either the same 2YF/3wt Ba/F3 cell line or the parental Ba/F3's in the presence of IL-3 to remove cytotoxic primary hits, we first tested a panel of kinase inhibitors with established mechanisms of action.
For Axl+ cells, the transduced cells were spun down at 500×g for 5 min and resuspended in media supplemented with 10 ng/mL IL-3 and 3 μg/mL puromycin (Invitrogen). Cells were maintained in these conditions for 7 days, passaging as required. After 7 days the cells were spun down, washed with fresh media, and then suspended in IL-3 free media. The cells were maintained in these conditions for 2 weeks to select for an IL-3 independent population of Axl+ driven cells.
(§2) Proliferation Assays. For adherent cell lines, cells were plated onto opaque white 96 well plates (Greiner cat #655083) and allowed to adhere overnight. The following day media was changed to fresh media that contained either DMSO or the indicated concentration of drug plus NRG (50 ng/mL final concentration) as indicated. Plates were incubated at 37° C. for 72 h and proliferation was read out using Cell Titer Glo (Promega) according to the manufacturer's protocol. For Ba/F3 cell proliferation, cells, drug dilution, and any necessary growth factors (10 ng/mL IL-3 or 6.25 ng/mL NRG) were combined in a well of a 96 well plate. Plates were incubated at 37° C. for 48 h and proliferation was read out using Cell Titer Glo according to the manufacturer's protocol. For all normalized assays, proliferation was normalized to the DMSO control condition. All graphs were plotted in GraphPad Prism 6 and fit with a non-linear regression of the log(inhibitor) vs response with a variable slope where shown. All graphs are averages (+/−standard deviation) of biological triplicates each performed in technical triplicate unless otherwise noted. If only one biological replicate was performed standard deviations were derived from the technical replicates.

[3] = test system: parental Ba/F3 cells + IL-3; assay: Ba/F3 proliferation assay, Parental + IL-3; assay type: cell-based; details: Mus musculus, BaF3; Tables 7 and 8; read-out: Ba/F3 line IC50, Parental + IL-3
Description: as §1, §2

[4] = test system: HER2+/2VE Ba/F3 line; assay: Ba/F3 proliferation assay, HER2+/2VE; assay type: cell-based; details: Mus musculus, BaF3; Tables 7 and 8
Description: as §2

[5] = test system: HCC827; assay: HCC827 cell viability; assay type: cell-based; details: Homo sapiens, compound at 1 nM, n in the line below, read-out: HCC827 (% viable at 1 nM)
[6] = test system: A431; assay: A431 cell proliferation; assay type: cell-based; details: Homo sapiens, A-431; Table 8; n in the line below
[7] = test system: NCI-H1975; assay: NCI-H1975 cell proliferation; assay type: cell-based; details: Homo sapiens, Table 8, n in the line below
[8] = Mouse Liver Microsome stability assay; assay type: in vitro ADME; details: mouse liver microsomes
[9] = test system: Ba/F3 cell line panel (HER2YF/HER3); assay: 48 h proliferation of the Ba/F3 cell line panel (CellTiter-Glo); assay type: cell-based; details: 48 h proliferation curves
Description: FIGS. 3A-3D. Design and execution of a high-throughput screen identifies a novel HER2/HER3 inhibitor. FIG. 3A: 2YF/3wt cells were incubated in the presence or absence of NRG for 48 h and proliferation was assessed by CellTiter-Glo (mean±SD, n=1). […] FIG. 3C: Structure and proliferation curves for hit compound 1 (also referred herein as compound 185) against the Ba/F3 cell line panel (mean±SD, n=3), FIG. 3D: Structure and proliferation curves for compound 2 (also referred to herein as compound 55A) against the panel of Ba/F3 cell lines (mean±SD, n=3).
FIGS. 4A-4F. Compound 2 is a selective Type I inhibitor for HER2. […] FIG. 4B: Thermal stabilization of the HER3 kinase domain by either compound 2 or ATP as determined by Thermofluor (mean±SD, n=3). FIGS. 4C-4D: The crystal structure of either erlotinib (FIG. 4C) or 2 (FIG. 4D) bound to EGFR V924R. The kinase domain in complex with compound 2 has been stabilized in the active confirmation by drug binding, despite the mutation—as evidenced by the ordered extension of the activation loop and the inward positioning of the α-C helix.
FIGS. 5A-5D. […] FIG. 5A: Chemical structure of compound 3 (also referred to herein as compound 178). FIG. 5B: Proliferation curves for compound 3 against the Ba/F3 cell line panel (mean±SD, n=3). […] FIG. 5D: The same assay in FIG. 2A was performed with compound 3 in SK-BR-3 cells.
FIG. 10. […]

[10] = test system: 2YF/3wt + IL-3 Ba/F3 cells; assay: Ba/F3 proliferation assay, 2YF/3wt + IL-3; assay type: cell-based; details: Mus musculus, BaF3; Table 4; ± S.D., n = 3; 48 h Cell Titer Glo
Description: as §1, §2

[11] = test system: HER2YF/HER3E928G (2YF/3EG) Ba/F3 cells; assay: Ba/F3 proliferation assay, 2YF/3EG +/- NRG; assay type: cell-based; details: + NRG vs no NRG
Source text: Consistent with the results in the HER2 overexpressing cell lines, CW-2 cells that harbor a HER3-activating mutation were equally sensitive to compound 3+/−NRG in both proliferation and signaling assays (FIGS. 6A-6B). […] To further evaluate the potential of compound 3 against HER2 mutants within a HER2/HER3 heterodimer we transduced wt HER3 containing Ba/F3 cells with reported HER2 oncogenic mutants in the HER2YF construct.
For HER2YF/3EG Ba/F3 cells were selected according to the protocol for the HER2YF/3TM Ba/F3's with the exception that no NRG was supplemented in the media during IL-3 independent selection.
as §2

[12] = Tables 7 and 8, read-out: Ba/F3 line IC50, HER2YF/HER3 + NRG
[13] = Tables 7 and 8, read-out: Ba/F3 line IC50, Axl+

2YF/3wt + NRG Ba/F3 cells (HER2YF/HER3wt), sequence (P04626 whole entry Y1005F/Y1023F/Y1112F/Y1127F/Y1139F/Y1196F/Y1221F/Y1222F/Y1248F): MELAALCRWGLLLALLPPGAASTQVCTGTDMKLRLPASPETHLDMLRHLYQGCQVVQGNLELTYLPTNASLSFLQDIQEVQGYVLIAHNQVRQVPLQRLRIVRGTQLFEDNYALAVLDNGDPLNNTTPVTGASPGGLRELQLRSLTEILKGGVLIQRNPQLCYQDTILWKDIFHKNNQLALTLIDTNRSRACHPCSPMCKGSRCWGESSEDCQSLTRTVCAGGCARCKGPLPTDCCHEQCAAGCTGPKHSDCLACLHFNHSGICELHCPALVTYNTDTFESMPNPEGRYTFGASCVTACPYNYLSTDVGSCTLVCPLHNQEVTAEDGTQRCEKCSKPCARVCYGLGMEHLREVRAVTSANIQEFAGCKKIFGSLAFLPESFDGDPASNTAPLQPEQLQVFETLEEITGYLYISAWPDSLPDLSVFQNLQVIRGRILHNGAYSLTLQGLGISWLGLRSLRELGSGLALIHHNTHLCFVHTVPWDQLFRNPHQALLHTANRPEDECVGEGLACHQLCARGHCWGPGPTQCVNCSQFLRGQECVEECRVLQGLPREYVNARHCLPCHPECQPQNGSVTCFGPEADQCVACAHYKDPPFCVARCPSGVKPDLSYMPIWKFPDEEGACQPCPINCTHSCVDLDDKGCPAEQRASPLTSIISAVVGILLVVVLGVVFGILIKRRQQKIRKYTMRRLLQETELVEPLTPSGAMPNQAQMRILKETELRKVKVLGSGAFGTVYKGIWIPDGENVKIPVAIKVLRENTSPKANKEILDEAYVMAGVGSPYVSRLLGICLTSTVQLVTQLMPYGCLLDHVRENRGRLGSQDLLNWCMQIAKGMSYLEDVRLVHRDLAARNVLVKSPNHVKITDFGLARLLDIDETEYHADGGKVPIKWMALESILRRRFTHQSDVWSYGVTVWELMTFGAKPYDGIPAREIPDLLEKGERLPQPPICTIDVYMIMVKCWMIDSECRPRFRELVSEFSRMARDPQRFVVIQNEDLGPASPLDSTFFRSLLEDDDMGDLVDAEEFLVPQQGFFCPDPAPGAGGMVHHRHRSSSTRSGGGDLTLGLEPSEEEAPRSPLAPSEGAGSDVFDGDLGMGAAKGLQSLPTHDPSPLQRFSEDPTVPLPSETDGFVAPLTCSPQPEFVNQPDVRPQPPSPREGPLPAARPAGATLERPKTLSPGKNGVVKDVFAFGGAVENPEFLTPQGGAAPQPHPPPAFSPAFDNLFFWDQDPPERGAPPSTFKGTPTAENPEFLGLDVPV

Compound | GI50 [1, 12] | GI50 [2, 13] | IC50 [4] | IC50 [6] | IC50 [7] | WuXi Microsomal stability (Mouse Extraction Ratio) [8] | GI50 ([1]; Table 4, ± S.D., n = 3, 48 h Cell Titer Glo, read-out: IC50, 2YF/3wt + NRG) | IC50 [10] | GI50 ([2]; Table 4, ± S.D., n = 3, 48 h Cell Titer Glo, read-out: IC50, Axl) | IC50 [3] | viability at 0.001 µM [5] | level of pathway inhibition distinguished by the Ba/F3 panel [9] | reduction of sensitivity on addition of NRG [11]
COc1ccc(-c2ccccc2)cc1Nc1ncnc2[nH]nc(-c3ccn(C)n3)c12 [8-097] | 1 nM | 612 nM | 13.7 nM | 290 ± 71 nM | 507 ± 85.1 nM | – | – | – | – | 1770 nM | 29.5 ± 7.1% | – | –
CN(C)c1ccc(-c2ccsc2)cc1Nc1ncnc2[nH]nc(-c3cc[nH]n3)c12 [104A] | 1.5 nM | 844 nM | 48.5 nM | 330 ± 125 nM | 720 ± 30 nM | 0.87 | – | – | – | 1600 nM | 29.8 ± 2.7% | – | –
CN(C)c1ccc(-c2ccsc2)cc1Nc1ncnc2[nH]nc(-c3ccn(C)n3)c12 [104B] | 1.5 nM | 1560 nM | 46.4 nM | 343 ± 169 nM | 814 ± 59 nM | – | – | – | – | ~2000 nM | 25.2 ± 3.4% | – | –
CC(=O)Nc1nc(C)c(-c2ccc(Cl)c(S(=O)(=O)NCCO)c2)s1 [PIK-93] | – | – | – | – | – | – | – | – | – | – | – | hit downstream | –

Now from value to compound, other results behind:

GI50 [1, 12] | GI50 [2, 13] | IC50 [4] | IC50 [6] | IC50 [7] | WuXi Microsomal stability (Mouse Extraction Ratio) [8] | GI50 ([1]; Table 4, ± S.D., n = 3, 48 h Cell Titer Glo, read-out: IC50, 2YF/3wt + NRG) | IC50 [10] | GI50 ([2]; Table 4, ± S.D., n = 3, 48 h Cell Titer Glo, read-out: IC50, Axl) | Compound | IC50 [3] | viability at 0.001 µM [5] | level of pathway inhibition distinguished by the Ba/F3 panel [9] | reduction of sensitivity on addition of NRG [11]
– | – | – | – | – | – | 399 ± 111 nM | > 10000 nM | > 3330 nM | CC(C)(O)CC(=O)NCCn1ccc2ncnc(Nc3ccc(Oc4cccc(C(F)(F)F)c4)c(Cl)c3)c21 [TAK-285, reference compound] | – | – | – | 40 fold
6.8 nM | 1170 nM | 70.3 nM | – | – | 0.948 | – | – | – | COc1ccc(-c2ccoc2)cc1Nc1ncnc2[nH]cc(-c3cc[nH]n3)c12 [compound 178] | 2540 nM | – | – | –
